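Where inhibition never reached the appropriate level, the endpoint shown equals the highest concentration tested. Otherwise, values were interpolated linearly from a five-concentration, 48-hour dose response in 96-well plates. GI50: concentration for 50% inhibition of growth.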 Calls of active or inactive are those of the source. Rule as the data show it: active = GI50 up to about 1.1 µM and inactive = higher. Where only a bound is given, the exact number is not on record here.

Common to all, as to test: DTP human tumour cell line panel, 48 h
In experiment [1] the test system is LOX IMVI.
The subject of experiment [2] is SW-620.
Experiment [3] deals with OVCAR-3.
The subject of experiment [4] is COLO 205.
Experiment [5] deals with CCRF-CEM.
Experiment [6] deals with HCT-116.
Experiment [7] deals with CAKI-1.
In experiment [8] the test system is HL-60.
In experiment [9] the test system is HCC 2998.
Experiment [10] has as its system NCI-H226.
The test system of experiment [11] is OVCAR-4.
Experiment [12] concerns IGROV-1.
The subject of experiment [13] is K562.
Experiment [14] has as its system NCI-H522.
For experiment [15], the system named is RXF 393.
For experiment [16], the system named is SK-MEL-28.
Experiment [17] relates to U-251.
The subject of experiment [18] is HOP-62.
Experiment [19] has as its system SF-295.
Experiment [20] relates to UO-31.

Regarding `O=S(=O)(CCBr)CCBr`, the GI50 in experiment [1] was 7.67 µM (inactive); in experiment [2] it was 2.23 µM (inactive); in [3] it was 3.67 µM (inactive); in experiment [4] it was 3.21 µM (inactive); in [5], 2.96 µM (inactive); in experiment [6] it was 3.37 µM (inactive). Besides, the GI50 is 5.3 µM (inactive) in experiment [7]; 2.59 µM (inactive) in experiment [8]; 6.95 µM (inactive) in [9]; 19.2 µM (inactive) in experiment [10]; 9.57 µM (inactive) in experiment [11]; 5.42 µM (inactive) in [12]. Moreover, the GI50 in experiment [13] was 3.98 µM (inactive); in experiment [14], 1.48 µM (inactive); in [15], 2.17 µM (inactive); in experiment [16], 2.67 µM (inactive); in [17] it was 15.7 µM (inactive); in [18], 0.506 µM (active). Further, the GI50 in experiment [19] was 15.7 µM (inactive); in experiment [20] it was 30.8 µM (inactive).
Take `CC(=O)N1C(=O)/C(=C\C(=O)c2ccc(Cl)cc2)c2ccccc21`: the GI50 in [1] was 2.3 µM (inactive); in experiment [2], 4.24 µM (inactive); in experiment [3], 10.1 µM (inactive); in experiment [4] it was 9.44 µM (inactive); in experiment [5], 2.61 µM (inactive); in [6], 9.29 µM (inactive). Moreover, the GI50 in experiment [7] was 13.3 µM (inactive); in experiment [8], 2.28 µM (inactive); in experiment [9], 15.9 µM (inactive); in experiment [10], 19.9 µM (inactive); in experiment [11], 16.7 µM (inactive); in experiment [12] it was 16.7 µM (inactive). In addition, the GI50 in [13] is 12 µM (inactive); in experiment [14] it was 10.9 µM (inactive); in [15], 15.3 µM (inactive); in [16] it was 14 µM (inactive); in experiment [17], 15.5 µM (inactive); in [18], 20.1 µM (inactive). Also, the GI50 is 21.1 µM (inactive) in [19] and 15.4 µM (inactive) in experiment [20].
For the molecule `CCN(CC)CCCOC(=O)/C=C/c1c(C)[nH]c(=O)[nH]c1=O`, the GI50 in experiment [1], in experiment [2], in [3], in experiment [4], in experiment [5] and in experiment [6] was > 625 µM (inactive) throughout. In addition, the GI50 in experiment [7] was > 625 µM (inactive); in [8], > 625 µM (inactive); in experiment [9] it was > 625 µM (inactive); in [10], > 625 µM (inactive); in experiment [11], > 394 µM (inactive); in [12], > 625 µM (inactive). Moreover, the GI50 in [13] was > 625 µM (inactive); in experiment [14], > 625 µM (inactive); in [15], > 99.1 µM (inactive); in experiment [16], > 625 µM (inactive); in experiment [17], > 625 µM (inactive); in experiment [18], > 625 µM (inactive). In addition, the GI50 in experiment [19] is 525 µM (inactive); in [20], > 625 µM (inactive).
For `O=C(O)CSc1nnc(/C=C/c2ccccc2)[nH]1`, the GI50 in [1] was > 61.2 µM (inactive); in [2], > 57.5 µM (inactive); in experiment [3] it was > 100 µM (inactive); in experiment [4], > 100 µM (inactive); in experiment [5], > 100 µM (inactive); in [6], > 100 µM (inactive). Besides, the GI50 in [7], in experiment [8], in experiment [9], in experiment [10], in [11] and in [12] was > 100 µM (inactive) throughout. Further, the GI50 in experiment [13], in experiment [14], in experiment [15], in experiment [16], in experiment [17] and in experiment [18] was > 100 µM (inactive) in each case. For the same molecule, the GI50 in experiment [19] and in [20] was > 100 µM (inactive) each time.
Regarding `CCCCN(CCCC)C(=O)C(=O)C(C(=O)C(=O)OC)c1nc2ccccc2o1` (stereo not given), the GI50 in [1] was 44.8 µM (inactive); in experiment [2], 87.5 µM (inactive); in experiment [3], 78.5 µM (inactive); in experiment [4], > 100 µM (inactive); in experiment [5], 34.8 µM (inactive); in experiment [6] it was 67.9 µM (inactive). For the same molecule, the GI50 in experiment [7] was > 100 µM (inactive); in [8], 69.3 µM (inactive); in [9] it was > 100 µM (inactive); in experiment [10], > 100 µM (inactive); in [11] it was > 100 µM (inactive); in experiment [12], 50.8 µM (inactive). The GI50 in [13] was 65.9 µM (inactive); in experiment [14] it was > 100 µM (inactive); in experiment [15] it was 17.5 µM (inactive); in experiment [16] it was > 100 µM (inactive); in experiment [17] it was 90.6 µM (inactive); in experiment [18] it was 74.5 µM (inactive). The GI50 in experiment [19] and in experiment [20] was > 100 µM (inactive) throughout.
With `COc1cc(O)c(Cc2ccccc2O)c(O)c1C(=O)CCc1ccccc1` [UVARETIN], the GI50 is 6.05 µM (inactive) in experiment [1]; 7.23 µM (inactive) in [2]; 4.58 µM (inactive) in experiment [3]; 5.92 µM (inactive) in experiment [4]; 6.21 µM (inactive) in [5]; 4.31 µM (inactive) in experiment [6]. In addition, the GI50 in experiment [7] was 5.24 µM (inactive); in experiment [8], 4.43 µM (inactive); in experiment [9], 6.1 µM (inactive); in [10], 6.62 µM (inactive); in experiment [11] it was 6.55 µM (inactive); in experiment [12], 6.97 µM (inactive). The GI50 in experiment [13] is 5.26 µM (inactive); in [14], 2.3 µM (inactive); in experiment [15], 6.07 µM (inactive); in experiment [16], 7 µM (inactive); in experiment [17], 5.12 µM (inactive); in [18], 2.47 µM (inactive). Further, the GI50 in experiment [19] was 5.9 µM (inactive); in experiment [20], 6.21 µM (inactive).

In general, GI50 refers to the concentration that inhibits growth by half.

The values above are taken from ChEMBL document CHEMBL1201862, “PubChem BioAssay data set” (2004).
